Data on one molecule can be found in patent US20090312367A1, “COMBINATION OF MODAFINIL AND AN ANTAGONIST OR INVERSE AGONIST OF THE H3 RECEPTOR” (Bioprojet, priority 2006, published 2009).

The assay relates to cats with MPTP-induced parkinsonism. The assay can be described thus: Parkinson's disease model: wakefulness in cats with MPTP-induced parkinsonism. It is filed as in vivo. The following applies: MPTP-treated cats displaying sleepiness. An excerpt: The inventors also investigated the combination of 1-{3-[3-(4-chlorophenyl)propoxy]propyl}piperidine and modafinil on wakefulness in cats with MPTP-induced parkinsonism. MPTP is a neurotoxin which selectively destroys dopaminergic neurons in the mesencephalon. MPTP-treated animals display sleepiness similar to that seen in many patients.

For `NC(=O)C[S+]([O-])C(c1ccccc1)c1ccccc1` (stereo not shown) [modafinil, 2-benzhydrylsulfinylthanamide], the wakefulness result was “only a modest improvement in wakefulness”.
